# T1: Dkk-1 (Mus musculus, UniProt O54908)
# T1 construct: endogenous in cells; host or cells: C57BL/6 mice (whole animal; Dkk-1 released from platelets into plasma)
# T1 sequence (O54908 32-272): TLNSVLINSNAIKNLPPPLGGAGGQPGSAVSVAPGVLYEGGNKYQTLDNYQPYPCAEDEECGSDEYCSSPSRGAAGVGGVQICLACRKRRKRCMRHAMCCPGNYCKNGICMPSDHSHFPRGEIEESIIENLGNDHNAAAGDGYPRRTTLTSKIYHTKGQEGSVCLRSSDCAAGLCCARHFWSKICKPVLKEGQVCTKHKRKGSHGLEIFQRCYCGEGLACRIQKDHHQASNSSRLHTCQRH
# Tests used:
# Dkk-1 [1] = target: T1, Dkk-1; assay: C. albicans-induced allergic airway disease in mice given Dkk-1 inhibitor intraperitoneally; assay type: in vivo, C57BL/6 mice
# Method: The relevance of Dkk-1 to allergic airway disease induced by airway mycosis is unknown. Mice challenged with C. albicans were administered a Dkk-1 inhibitor (WAY 262611) previously shown to block this peptide in vivo (Chae et al., 2016b) (FIG. 2G).
# (§1) C57BL/6 mice were administered 1×10^5 viable cells of C. albicans intranasally every other day for 8 challenges as shown in FIG. 1 (Porter et al., 2011a). Alternatively, C57BL/6 mice were given 4, 8, and 16 μmol candidalysin or 16 μmol of scrambled peptide control in PBS every other day for 8 challenges as shown in FIG. 8. Dkk-1 inhibitor (Chae et al., 2016a) (WAY262611, cat: 317700, Millipore Sigma, Burlington, MA. Dose: 10 or 20 μg/kg) and recombinant mouse Dkk-1 (5897-DK-010, R&D systems, Minneapolis, MN. Dose: 5 μg/kg) were given intraperitoneally at the same time and fungal challenge. Mice were analyzed 24 h after the final challenge for allergic airway disease endpoints.
# (§2) Bronchial constriction in response to increasing dose of acetylcholine (Ach) injected intravenously, bronchoalveolar lavage fluid (BALF) cell differential counting, Dkk-1 quantitation from plasma, ELISA analysis of whole lung, flow cytometry analysis of Th cells and lung histopathology were assessed in response to C. albicans challenge as previously described (Porter et al., 2011a). Briefly, mice were anesthetized with etomidate and intravenously injected with acetylcholine via tail vein to assess AHR as quantified by measuring respiratory system resistance (RRS). Total BALF cells were collected by lavaging whole lung, total cells were enumerated and differential cell counting was performed on modified Giemsa-stained cytospin preparations. Plasma was harvested by retro-orbital bleeding and anti-coagulated by 10% 0.5M EDTA (Thermofisher scientific, Waltham MA). Lungs were harvested and processed as follows. Lungs were cut into small pieces and incubated in digestion buffer (2 mg/ml collagenase (#LS004177, Worthington), 0.04 mg/ml DNAse (#10104159001, Sigma) 1, 20% FBS in HBSS) for 1 h at 37° C. after which they were deaggregated by pressing through a […] nylon mesh and centrifuged at 400×g for 5 minutes at 4° C. Supernatants were discarded, and 1.5 mL of ACK (Thermofisher scientific, Waltham MA) was added and incubated for 3 min at room temperature for erythrocyte lysis. ACK was then neutralized with 7.5 mL of complete RPMI-1640 (Corning, NY), with 10% FBS and 1% Pen Strep, Gibco, Waltham MA). The resulting leukocyte preparations were centrifuged and prepared for flow cytometry analysis or ELISA.
# Cell culture supernatants were analyzed for cytokines by standard ELISA after comparison to recombinant standard. IL-4 (Clone 11B11 and 554390 BD Biosciences, San Jose, CA), IL-5, IL-13 (DY405, DY413, R&D systems, Minneapolis, MN), IL-17 (BMS2017, Thermofisher scientific, Waltham MA), IFN-7 (555142, BD Biosciences, San Jose, CA), IL-1, IL-6, TNF (ab210895, ab213749 and ab212073, Abcam, Cambridge MA) were used as antibodies pairs and capture signals were amplified using Streptavidin-horseradish peroxidase conjugate (51-9002813, BD Biosciences, San Jose, CA). The plate was further developed using TMB substrate solution (N301, Thermofisher scientific, Waltham MA) and detected at the absorbance wavelength of 450 nm.
# Total lung cells isolated above were stained with Live/Dead Fix Blue (L34961, Thermofisher scientific, Waltham MA), CD45, CD3, CD4 (103122, 100222, 100412, Biolegend, San Diego, CA). Cells were separated into 3 groups, then permeabilized and fixed using Transcription Factor Buffer Set (562574, BD Biosciences, San Jose, CA), and stained individually for T-bet, GATA3 or RORγt (561265, 560074, 562607, BD Biosciences, San Jose, CA). For megakaryocyte staining, total lung cells were stained with Live/Dead Fix Blue and CD41, CXCR4 (133927, 146507, Biolegend, San Diego, CA), Dkk-1 (BAM1765, R&D systems, Minneapolis, MN) and PE-streptavidin (405203, Biolegend, San Diego, CA). […]
# Dkk-1 [2] = target: T1, Dkk-1; assay: Fungal experimental asthma due to Aspergillus niger, Dkk-1 antagonist IN or IP; assay type: in vivo, C57BL/6 mice
# Method: C57BL/6 mice (4-6 weeks old) were challenged every second day with 400,000 viable conidia of AN while at the same time receiving a Dkk-1 antagonist (WAY262611) intranasally (IN) or intraperitoneally (IP) for 14 days. Airway hyperresponsiveness as assessed by enhanced increases in respiratory system resistance in response to increasing doses of acetylcholine chloride injected intravenously were determined as compared to PBS control mice (blue line). […] Thus, regardless of the fungus used, either Candida albicans or A. niger as shown herein, Dkk-1 can induce AHR. Statistics: IP versus IN or AN lines: P<0.05.
# C57BL/6 mice [3] = assay: Steroid-resistant AAD models (A. niger ± LPS), fluticasone propionate; assay type: in vivo; settings: A. niger conidia ±30 ng LPS; daily treatment
# Method: As shown in the severe eosinophilic and neutrophilic steroid-resistant AAD models of FIGS. 14A-14B, mice challenged with Aspergillus niger (AN) develop an asthma phenotype, here showing airway hyperresponsiveness (AHR), that is steroid (fluticasone propionate; FP, a commonly used steroid in asthma) resistant. Illustrated in FIG. 14A is an experimental timeline for assessing the effect of daily FP or vehicle (liposome: dilauroylphosphatidylcholine: DLPC) treatment on AHR. AHR was measured as a function of respiratory system resistance (RRS(cmH2O·s·ml^−1)) in C57BL/6 mice challenged intranasally (q.o.d.) with 4×10^5 A. niger (AN) conidia ±30 ng lipopolysaccharide (LPS) (FIG. 14B).
# Human platelets = assay: Dkk-1 release from human platelets stimulated overnight at 4° C. or 37° C.; assay type: cell-based; settings: overnight at both 4° C. and 37° C.; versus unstimulated platelets
# Method: To investigate agents driving Dkk-1 release by platelets, human platelets were stimulated with lipopolysaccharide (LPS), thrombin, prothrombin (ProThrom), proteinase of Aspergillus melleus (PAM), or candidalysin (C. Lysin) overnight at 4° C. (FIG. 13A) or 37° C. (FIG. 13B). Unstimulated human platelets served as a control (platelets). Following stimulation, Dkk-1 concentration in the supernatant was quantified.
# C57BL/6 mice [4] = assay: Recombinant mouse Dkk-1 i.p. in ece1Δ/Δ C. albicans-challenged mice; assay type: in vivo
# Method: To confirm, synthetic mouse Dkk-1 was administered to mice challenged with ece1Δ/Δ C. albicans (FIG. 3A). […] Dkk-1 alone had no effect on any index of allergic airway disease when administered through the intraperitoneal route (data not shown). Thus, in some aspects, Dkk-1 may be an important mediator of lung Th2 cell responses (Chae et al., 2016b), and may be equally important for the generation of Th17 cell responses in the context of airway mycosis. These findings further confirm that Dkk-1 is essential for the control of C. albicans growth in the lung.
# as §1, §2
# [5] = ece1Δ/Δ C. albicans-challenged mice
molecule,measurement,setting,value
NCC1CCN(c2nccc(-c3ccc4ccccc4c3)n2)CC1 [WAY 262611],lung fungal burdens,Dkk-1 [1]; C. albicans-challenged mice,markedly elevated
same,BALF eosinophilia,"Dkk-1 [1]; C. albicans-challenged mice, 10 or 20 μg/kg i.p.",most notably reducing
same,BALF inflammatory cell recruitment,"Dkk-1 [1]; C. albicans-challenged mice, 10 or 20 μg/kg i.p., dose-dependent",progressively reduced
same,"secretion of type 2 cytokines (IL-4, IL-5, IL-13) from whole lung","Dkk-1 [1]; C. albicans-challenged mice, ELISA",suppression
same,airway hyper-responsiveness,"Dkk-1 [1]; C. albicans-challenged mice, inhibitor 10 or 20 μg/kg i.p., dose-dependent, 24 h after final challenge",progressively reduced
same,"secretion of IL-1β, IL-6 and TNF","Dkk-1 [1]; C. albicans-challenged mice, lung, ELISA",not significantly affected
same,secretion of IL-17,"Dkk-1 [1]; C. albicans-challenged mice, whole lung, ELISA",inhibited
same,recruitment to whole lung of GATA3+ Th2 and RORγt+ Th17 cells,"Dkk-1 [1]; flow cytometry, correlated with inhibitor dose",decreased recruitment
same,airway hyperresponsiveness (AHR) in fungal experimental asthma due to Aspergillus niger,"Dkk-1 [2]; FIG. 16 legend, route not stated",abrogates
same,AHR induced by AN,"Dkk-1 [2]; IP route (systemic), 14 days, P<0.05 versus IN or AN",abrogates
"CCC(=O)O[C@]1(C(=O)SCF)[C@H](C)C[C@H]2[C@@H]3C[C@H](F)C4=CC(=O)C=C[C@]4(C)[C@@]3(F)[C@@H](O)C[C@@]21C [FP, fluticasone propionate]",airway hyperresponsiveness,C57BL/6 mice [3],exacerbate
thrombin,Dkk-1 release by platelets,Human platelets,significantly increased
"Dkk-1: recombinant mouse Dkk-1 (5897-DK-010, R&D systems), Wnt pathway antagonist peptide (protein, UniProt O54908 32-272, looked up) Dickkopf-related protein 1: TLNSVLINSNAIKNLPPPLGGAGGQPGSAVSVAPGVLYEGGNKYQTLDNYQPYPCAEDEECGSDEYCSSPSRGAAGVGGVQICLACRKRRKRCMRHAMCCPGNYCKNGICMPSDHSHFPRGEIEESIIENLGNDHNAAAGDGYPRRTTLTSKIYHTKGQEGSVCLRSSDCAAGLCCARHFWSKICKPVLKEGQVCTKHKRKGSHGLEIFQRCYCGEGLACRIQKDHHQASNSSRLHTCQRH",any index of allergic airway disease,"C57BL/6 mice [4]; Dkk-1 alone, intraperitoneal route, data not shown",no effect
same,fungal lung burdens,C57BL/6 mice [4]; [5],significantly reduced
same,"recruitment of inflammatory cells, especially eosinophils, to the airways",C57BL/6 mice [4]; [5],markedly enhanced
same,recruitment to lung of GATA3+ Th2 and RORγt+ Th17 cells,C57BL/6 mice [4]; [5],markedly increase
same,secretion of innate pro-inflammatory cytokines,C57BL/6 mice [4]; [5],did not influence
same,"secretion of lung Th2 cytokines, especially IL-4, but also IL-17",C57BL/6 mice [4]; [5],markedly enhanced
same,airway hyper-responsiveness,"C57BL/6 mice [4]; ece1Δ/Δ C. albicans-challenged mice, 5 μg/kg i.p.",significantly enhanced

# — patent publication US20240350491A1, “METHODS AND COMPOSITIONS FOR IMMUNE CONTROL THROUGH DICKKOPF-1” (Baylor College of Medicine, priority 2021, published 2024)
